From patent US20120213766A1, “Anticancer Compounds from Vernonia Guineensis” (priority 2011, published 2012)

Assays:
B16 tumors = experiment: In vivo antitumor activity; conditions: B16 tumors in C57 mice; FIG. 5
[1] = test system: human leukaemia cell line HL-60; experiment: Apoptosis determination (Annexin V and propidium iodide, flow cytometry); type: cell-based; conditions: 1x, 10x and 50x IC50, 0-24 h
Procedure: The apoptotic effects of Kuminol (Compound A) and Vernoginin (Compound B) against the human leukaemia cell line HL-60 was determined. Annexin V and Propidium Iodide assay were carried out to determine whether Kuminol and Vernoginin have effect on cell cycle and induction of apoptosis in cancer cells. Cell death can result from either necrosis or apoptosis (programmed cell death).
The human leukaemia cell line HL60 were plated in RPMI1640 at 4×10^6 (2×10^5 cells/ml) and treated with 1×IC50, 10×IC50 and 50×IC50 Kuminol and Vernoginin. For cell cycle, 2 ml of the treated cells were stained with propidium iodide as per the manufactures instruction, aliquots (2 ml) of cells were removed and fixed at 3, 6, 24, 48 and 72 hours. For apoptosis, 2 ml aliquots of cells were removed at 0, 3, 6 and 24 hours and were stained with Annexin V FITC as per the manufacturer's instructions. The presence of apoptosis and cell cycle changes were detected using a Cytomics 500 Beckman Coulter Flow Cytometer (Coulter, Inc. Hialeah, Fla., USA

[2] = test system: prostate cancer cell line PC-3; experiment: Cell proliferation assay (WST-1, 72 h); type: cell-based; conditions: Prostate PC-3, average of two runs
Procedure: (§1) Breast cancer cells lines MDA-MD-231 and MCF-7, colon cancer cell line HCT-116, Leukaemia cell line HL-60, lung cancer cell line A549, melanoma cancer cell line A375, ovarian cancer cell line OVCAR3 and prostate cancer cell line PC-3 were treated with Compound A (Kuminol) and Compound B (Vernoginin) to determine the effects of the molecules on the proliferation of each cell line.
(§2) Established protocol was used to assay the anti-proliferation effects of these compounds against selected cancer cell lines. Each cell line is grown in RPMI/10% FBS/1% glutamine. On the day the experiment is initiated, cells are trypsinized and plated into 96 well plates in 50 ul of media. Compound is added approximately 18 hours after plating. Cells are plated at a density so that 72 hours post drug addition, the cells are in log phase (500-2000 cells/well). The compounds are solubilized in DMSO at a concentration of 100 mM, aliquoted and stored at −20^C. On the day of drug addition, the compounds are removed from the freezer and serially diluted in DMSO to concentrations as low as 100 nM. The compounds are then diluted 1:1000 into growth media (this is 2× the final concentration) including a DMSO alone control. 50 ul of media/compound is added to each well. The cells are allowed to proliferate for 72 hours. The experiment is terminated using WST-1 (Roche) and absorbance is read at 450 nm/690 nm IC50s are calculated in GraphPad Prism converting all values to percentage of control cell growth. Each cell line is run in duplicate and the average of the two runs is the calculated IC50 of each compound.

[3] = test system: Leukaemia cell line HL-60; experiment: Cell proliferation assay (WST-1, 72 h); type: cell-based; conditions: Homo sapiens, Leukaemia HL-60, average of two runs
Procedure: as §1, §2

[4] = test system: lung cancer cell line A549; experiment: Cell proliferation assay (WST-1, 72 h); type: cell-based; conditions: Homo sapiens, average of two runs
Procedure: as §1, §2

[5] = test system: Breast cancer cell line MCF-7; experiment: Cell proliferation assay (WST-1, 72 h); type: cell-based; conditions: Homo sapiens, MCF7, Breast MCF-7, average of two runs
Procedure: as §1, §2

[6] = test system: Breast cancer cell line MDA-MB-231; experiment: Cell proliferation assay (WST-1, 72 h); type: cell-based; conditions: Homo sapiens, Breast MDA-MB-231, average of two runs
Procedure: as §1, §2

[7] = test system: melanoma cancer cell line A375; experiment: Cell proliferation assay (WST-1, 72 h); type: cell-based; conditions: A-375, Human melanoma A375, average of two runs
Procedure: as §1, §2

[8] = test system: colon cancer cell line HCT-116; experiment: Cell proliferation assay (WST-1, 72 h); type: cell-based; conditions: Homo sapiens, Colon HCT-116, average of two runs
Procedure: as §1, §2

[9] = test system: ovarian cancer cell line OVCAR3; experiment: Cell proliferation assay (WST-1, 72 h); type: cell-based; conditions: Homo sapiens, OVCAR-3, average of two runs
Procedure: as §1, §2

[10] = test system: prostate cancer, human melanoma, breast cancer and others; experiment: Anticancer screen, in vitro cell proliferation assay (MTT); type: cell-based
Source text: The extracts obtained as described above were fractionated by absorbing onto celite and then extracting with increasing polarities of ethyl acetate in hexane. Each fraction obtained was evaporated in-vacuo to remove the solvent and monitored by thin layer chromatography (TLC). […] The dried residue of each fraction was used in the anticancer assay to determine effect on cell proliferation. The active fraction was subjected to dry column chromatography (DCC) using normal phase silica gel activated for visualization with UV 254. This procedure led to the isolation of compounds of Formula I in pure form. The Compound A (Kuminol) and the other fractions obtained were further subjected to anticancer activity screening.
Further purification of second active fraction by use of Waters Sep Pak flash chromatography yielded compounds of the Formula II. Compound B (Vernoginin) inhibited prostate cancer, human melanoma, breast cancer and others in the in vitro cell proliferation assay.
The anticancer screen is based on the highly sensitive 3-(4,5-dimethylthiazol-2-yl)-2, S-diphenyl tetrazolium bromide (MTT) assay. […]
The anticancer activity of the extract obtained as described above was confirmed using the highly proliferative B16 cell line. […] Each of the fractions obtained was evaporated in-vacuo to remove the solvent and monitored by thin layer chromatography (TLC). […]

C=C1COC(O)/C(C(O/C=C(\C)C=O)C(=C)C(=O)O)=C\CCCC(O)C1=O (centres unmarked) [Kuminol, 2-[(2,8-Dihydroxy-10-methylene-9-oxo-oxacycloundec-3-en-3-yl)-(2-methyl-3-oxo-propenyloxy)-methyl]-acrylic acid]
suppression of tumors (in words) (B16 tumors): suppression effects | induction of apoptosis (in words) [1]: induce apoptosis | IC50 [2]: 1000 ± 260 nM | IC50 [3]: 1550 ± 470 nM | IC50 [4]: 2040 ± 1040 nM | IC50 [5]: 670 ± 320 nM | IC50 [6]: 1010 ± 200 nM | IC50 [7]: 350 ± 40 nM | IC50 [8]: 450 ± 7 nM | IC50 [9]: 740 ± 310 nM | growth inhibition in anticancer assay (in words) [10]: exhibited growth inhibition

C=CC(C)(CC(O)C(O)C(=C)C=O)C(O)C(C(=C)C(C)=O)C(=C)C(=O)CCO (centres unmarked) [Vernoginin, 3,4,7,12,-Tetrahydroxy-6-methyl-2,9-dimethylene-8-(1-methylene-2-oxo-propyl)-10-oxo-6-vinyl-dodecanal]
induction of apoptosis (in words) [1]: induce apoptosis | IC50 [3]: 1120 ± 750 nM | IC50 [4]: 1130 ± 380 nM | IC50 [5]: 1560 ± 960 nM | IC50 [6]: 367 ± 30 nM | IC50 [7]: 130 ± 150 nM | IC50 [8]: 140 ± 150 nM | IC50 [9]: 480 ± 8 nM | growth inhibition in anticancer assay (in words) [10]: inhibited
